Reference: PubChem BioAssay (NCI)
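All cell lines were grown in 96-well plates and treated with compound for 48 hours. GI50 = concentration required for 50% inhibition of growth. TGI is the concentration that stops growth completely.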

Key:
Assay in all cases: NCI-60 cell line screen, 48 h
NCI-H226 lung = test system: NCI-H226 lung
KM12 colon = test system: KM12 colon
MALME-3M melanoma = test system: MALME-3M melanoma
CAKI-1 renal = test system: CAKI-1 renal
DU-145 prostate = test system: DU-145 prostate
TK-10 renal = test system: TK-10 renal
RXF 393 renal = test system: RXF 393 renal
A498 renal = test system: A498 renal
SK-OV-3 ovarian = test system: SK-OV-3 ovarian
HL-60(TB) leukemia = test system: HL-60(TB) leukemia

Structure (SMILES) | GI50 (NCI-H226 lung) [µM] | TGI (NCI-H226 lung) [µM] | GI50 (KM12 colon) [µM] | TGI (KM12 colon) [µM] | GI50 (MALME-3M melanoma) [µM] | TGI (MALME-3M melanoma) [µM] | GI50 (CAKI-1 renal) [µM] | TGI (CAKI-1 renal) [µM] | GI50 (DU-145 prostate) [µM] | TGI (DU-145 prostate) [µM] | GI50 (TK-10 renal) [µM] | TGI (TK-10 renal) [µM] | GI50 (RXF 393 renal) [µM] | TGI (RXF 393 renal) [µM] | GI50 (A498 renal) [µM] | TGI (A498 renal) [µM] | GI50 (SK-OV-3 ovarian) [µM] | TGI (SK-OV-3 ovarian) [µM] | GI50 (HL-60(TB) leukemia) [µM] | TGI (HL-60(TB) leukemia) [µM]
Nc1ncnc2c1ncn2Cc1ccc(C23CC4CC(CC(C4)C2)C3)c(OCc2cc(F)c(F)cc2F)c1 | > 100 | > 100 | 3.92 | > 100 | 4.59 | > 100 | 2.32 | 6.9 | 15.3 | > 100 | 4.37 | > 100 | 2.02 | 8.36 | > 100 | > 100 | 87.7 | > 100 | 3.06 | 10.7
Cc1cc2cc3cc(C)c(N(C)C)cc3[n+](C)c2cc1N(C)C | 5.68 | 48 | 2.72 | 11.3 | 3.6 | 19.4 | 2.7 | > 100 | 4.87 | 31.9 | 5.19 | 58.4 | 6.09 | 23.4 | 3.18 | 25.5 | 5.05 | > 100 | 3.22 | > 100
N=C(N)c1ccc(OCCOCCOc2ccc(C(=N)N)cc2)cc1 | > 100 | > 100 | 41.6 | > 100 | 39.5 | > 100 | > 100 | > 100 | 96.1 | > 100 | 39.2 | > 100 | > 100 | > 100 | 63.7 | > 100 | – | – | > 100 | > 100
CC(C)Nc1ccc(Nc2ccccc2)cc1 | 19.9 | 69.3 | 22.4 | > 100 | 14.9 | 43.2 | 4.06 | 17.4 | 26.2 | > 100 | 23.1 | 57.4 | 8.81 | 24.6 | 9.69 | > 100 | 39.9 | > 100 | 17.7 | 51.3
CCCCOc1ccc(NC(=O)n2nc(N)c3ccccc32)cc1 | 21 | > 85.2 | 13.2 | 54.2 | 18.9 | 48.4 | 29.1 | 71.9 | 19.8 | 70 | 26.9 | > 73.5 | 25.8 | 61.2 | 20.1 | 49.4 | 49.2 | > 100 | 0.813 | 21
Oc1ccc(CN2CCC(N3CCOCC3)CC2)c2cccnc12 | 41.4 | > 100 | 46.9 | > 100 | 29.1 | > 100 | 29.2 | > 100 | 31.3 | > 100 | 62.4 | > 100 | 23 | 95.5 | > 100 | > 100 | > 100 | > 100 | 22.7 | 51
Clc1cc2c(cc1Cl)Oc1cc(Cl)c(Cl)cc1O2 | > 0.625 | > 0.625 | > 0.625 | > 0.625 | > 0.625 | > 0.625 | > 0.625 | > 0.625 | > 0.625 | > 0.625 | > 0.625 | > 0.625 | > 0.625 | > 0.625 | > 0.625 | > 0.625 | > 0.625 | > 0.625 | > 0.625 | > 0.625
CCOC(=O)/C(=N\OC)C(O)C(F)(F)F (centres undefined) | – | > 100 | – | > 100 | – | > 100 | – | > 100 | – | > 100 | – | > 100 | – | > 100 | – | > 100 | – | > 100 | – | > 100
O=c1ccc(N=Nc2ccc([N+](=O)[O-])cc2)ccc1O | 12.7 | > 100 | 5.54 | > 100 | 14.8 | > 100 | 7.79 | > 100 | 19 | > 100 | 20 | > 100 | 7.37 | > 100 | > 100 | > 100 | 28.4 | > 100 | 3.47 | 38.8
Cn1cc(C2=C(c3cccc(N)c3)C(=O)NC2=O)c2ccccc21 | 10 | > 25 | 7.95 | > 20 | > 25 | > 25 | 13 | > 25 | 19 | > 25 | > 25 | > 25 | 3.63 | > 17.7 | 1.13 | > 6.7 | > 19 | > 25 | 11.4 | > 25
O=[N+]([O-])c1ccccc1N=Nc1c(O)[nH]c2ccc(Br)cc12 | – | > 48.9 | – | 36.5 | – | > 100 | – | 33.1 | – | 31.5 | – | 30.8 | – | > 47.5 | – | > 45.8 | – | > 77.3 | – | > 68.8
CC/C(=C(/c1ccc(OCCN(C)C)cc1)c1ccc(OC(=O)CCC(=O)c2c(C)[nH]c(/C=C3\N=C(c4ccc[nH]4)C=C3OC)c2C)cc1)c1ccccc1 | 3.54 | 22.5 | 1.21 | 10 | 2.68 | 6.35 | 2.66 | 16 | 3.27 | 16.8 | 4.87 | 15.7 | 2.34 | 12.6 | 2.54 | 16.8 | 6.99 | 29.6 | 3.13 | 8.8
Nc1cc(C(=O)O)[nH]c(=O)n1 | – | > 100 | – | > 100 | – | > 100 | – | > 100 | – | > 100 | – | > 100 | – | > 100 | – | > 100 | – | > 100 | – | > 100
CC(C)c1c(C(=O)Nc2ccccc2)c(-c2ccccc2)c(-c2ccc(F)cc2)n1CC[C@@H]1CC=CC(=O)O1 | 1.71 | 3.26 | 1.65 | 3.24 | 1.76 | 3.41 | 1.6 | 3.45 | 1.84 | 3.27 | 2.18 | 4.67 | 1.62 | 3.13 | 4.92 | 19.1 | 3.39 | 11.9 | 1.24 | 6.42
O=C(Nc1ccc(F)cc1)Nc1ccccc1CNc1nc(Nc2ccc(OCCN3CCCC3)cc2)ncc1Cl | – | – | 1.81 | 6.35 | 0.81 | 1.55 | 2.87 | 9.25 | 2.48 | 8.06 | 1.77 | 6.8 | 0.895 | 1.88 | 1.42 | 8.21 | – | – | 1.07 | 2.31
COc1cccc(C2C3=C(COC3=O)N(CCO)c3cc(OC)ccc32)c1 (centres undefined) | 0.182 | 8.86 | 0.0543 | – | 0.0786 | > 100 | 0.768 | > 100 | 0.139 | 1.91 | – | > 100 | – | – | 0.0367 | 1.08 | 0.109 | – | 0.276 | > 100
COc1cc(-c2nc3sccn3c2-c2ccnc(NCCNS(=O)(=O)c3ccc(Cl)cc3)n2)ccc1F | 2.37 | 10.5 | 4.26 | > 100 | 3.35 | > 100 | 4.89 | > 100 | 3.62 | > 100 | 9.44 | > 100 | 1.64 | > 100 | – | – | 6.82 | > 100 | 3.74 | > 100
CCOc1ccccc1NC(=O)c1cc2ccccc2cc1O | 2.81 | 10.8 | 2.59 | 7.15 | 2.3 | 10.2 | 3.45 | 12.6 | 3.71 | 14.5 | 4.08 | 10.3 | 2.63 | 7.62 | 2.16 | 5.55 | – | – | 2.31 | 5.47
CC1=C(/C=C/C(=O)O)C(C)(C)CCC1 | – | > 100 | – | – | – | > 100 | – | > 100 | – | > 100 | – | > 100 | – | > 100 | – | > 100 | – | > 100 | – | > 100
CCN1/C(=C/C=C/c2n(-c3ccccc3)c3ccc(-c4nc5ccccc5s4)cc3[n+]2CC)N(c2ccccc2)c2ccc(-c3nc4ccccc4s3)cc21 | 0.317 | 15.6 | 1.24 | > 50 | 0.161 | 0.838 | – | – | 0.374 | 2.49 | 1.94 | > 50 | 0.563 | 7.37 | 0.246 | 2.39 | – | – | 0.464 | > 50
c1ccc2c(c1)sc1c3cnccc3ccc21 | – | > 100 | – | > 100 | – | > 100 | – | > 100 | – | > 100 | – | > 100 | – | – | – | > 100 | – | > 100 | – | > 100
